Converted amounts (≈) assume the structure as drawn. “Also recorded” adds a separate entry of the source.
How the values were obtained:
[1] = system: ERG11 and CDR1 of azole-resistant strain 904; test: RT-PCR expression of resistant genes ERG11 and CDR1; assay type: cell-based, Candida albicans; details: 0.25 μg mL^−1, strain 904, RT-PCR
C. alb (SC5314) = test: In vitro antifungal assay; assay type: cell-based; details: Candida albicans, SC5314, read-out: MIC80 C. alb (SC5314)
[2] = Metabolic stability assay of liver microsomes; assay type: in vitro ADME; details: mouse
Plasma stability assay = details: male, SD, rat
C. alb SC5314 [3] = test: GC-MS analysis of sterol composition; assay type: cell-based, Candida albicans; details: 0.03 μg mL^−1, 24 h
[4] = system: strain 904, fluconazole-resistant strain of C. albicans; test: Minimum fungicidal concentration; assay type: cell-based, Candida albicans; details: strain 904
Strain 904 [5] = test: ROS level; assay type: cell-based, Candida albicans; details: 0.25 μg mL^−1, compared to blank and fluconazole groups
Strain 904 [6] = test: Antifungal activity against fluconazole-resistant strain; assay type: cell-based, Candida albicans
[7] = system: five fluconazole-resistant strains obtained from clinical isolation; test: Antifungal activity, span over five fluconazole-resistant strains; assay type: cell-based, Candida albicans; details: Candida albicans, read-out: MIC80 span over the tested resistant strains
[8] = system: azole-resistant strain 904; test: Yeast-to-hypha morphological transition; assay type: cell-based, Candida albicans; details: 0.25 μg mL^−1, 5 h
Strain 904 [9] = test: Time-kill test; assay type: cell-based, Candida albicans; details: A11 at 8 × MIC, 16 × MIC, 32 × MIC
MRC-5 cells = test: Cytotoxicity assay on normal cells; assay type: cell-based, human; details: Homo sapiens, MRC5, 72 h, read-out: IC50 on MRC-5 cell lines
[10] = system: azole-resistant strain 904; test: In vivo antifungal potency, mouse infection model, kidney fungal burden; details: mice, tail vein infection with strain 904, intraperitoneal, day 5
Strain 17# = test: Antifungal activity against fluconazole-resistant strain; assay type: cell-based; details: Candida albicans, read-out: MIC80 Strain 17#
Strain 901 = test: as above; assay type: cell-based; details: Candida albicans, 901, read-out: MIC80 Strain 901
Strain 632 = test: as above; assay type: cell-based; details: Candida albicans, 632, read-out: MIC80 Strain 632
[11] = system: azole-resistant strain 904; test: Biofilm formation; assay type: cell-based, Candida albicans
Strain CaR = test: Antifungal activity against fluconazole-resistant strain; assay type: cell-based; details: Candida albicans, read-out: MIC80 Strain CaR
C. alb SC5314 [12] = test: Morphological observation of fungal cells by TEM; assay type: cell-based, Candida albicans; details: 2 μg mL^−1, 24 h
C. neo = test: In vitro antifungal assay; assay type: cell-based; details: Cryptococcus neoformans, read-out: MIC80 C. neo

SMILES: O=C(Nc1ccc(F)cc1F)c1ccc(COC(Cn2ccnc2)c2ccc(Cl)cc2Cl)cc1 (centres unmarked) [A11, 4-((1-(2,4-Dichlorophenyl)-2-(1H-imidazol-1-yl)ethoxy)methyl)-N-(2,4-difluorophenyl)benzamide]
- Expression of ERG11 and CDR1 [1]: reduced to basic levels
- MIC80 (C. alb (SC5314)): 0.03 µg/mL (≈ 0.0597 µM)
- half-life [2]: 15.5 min
- microsomal CLint [2]: 89.4 µL/min/mg
- half-life (Plasma stability assay): > 360 min
- remaining at 3 h (Plasma stability assay): 73.9%
- Effect on ergosterol biosynthesis / sterol composition (C. alb SC5314 [3]): effectively suppresses ergosterol biosynthesis
- MFC/MIC [4]: 16
- Intracellular ROS levels (Strain 904 [5]): significant increase in intracellular ROS levels
- MIC80 (Strain 904 [6]; Candida albicans, 904, read-out: MIC80 Strain 904): 0.125 µg/mL (≈ 0.249 µM)
- MIC (Strain 904 [6]; Candida albicans, 904, read-out: MIC against C. alb): 0.125 µg/mL (≈ 0.249 µM)
- MIC80 [7]: 0.125 to 2 µg/mL (≈ 0.249 to 3.98 µM)
- Morphological transition from yeast to hyphae [8]: completely hindered the morphogenetic transition
- Time-kill fungicidal effect (Strain 904 [9]): potent fungicidal effects at three concentrations
- IC50 (MRC-5 cells): > 100 µM
- Efficacy in vivo (CFU fungal burden in kidneys) [10]: potent efficacy; also recorded: significantly reduced fungal burden
- MIC80 (Strain 17#): 1 µg/mL (≈ 1.99 µM)
- MIC80 (Strain 901): 1 µg/mL (≈ 1.99 µM)
- MIC80 (Strain 632): 2 µg/mL (≈ 3.98 µM)
- Effect on mature biofilms [11]: dose-dependent destruction of mature fungal biofilms
- MIC80 (Strain CaR): 2 µg/mL (≈ 3.98 µM)
- Fungal cell morphology (TEM) (C. alb SC5314 [12]): disrupt the structural integrity of the cells
- MIC80 (C. neo): 0.06 µg/mL (≈ 0.119 µM)

Reference: paper PMC11962866 (RSC Advances, 2025)
